Data from US6500853B1, “Inhibitors of phospholipase enzymes” (Genetics Institute, LLC, priority 1998, dated 2002).
One block for each molecule: values may come before it.

Molecular target: T1, cPLA2 (Homo sapiens, UniProt P47712)
T1 sequence (P47712 1-749): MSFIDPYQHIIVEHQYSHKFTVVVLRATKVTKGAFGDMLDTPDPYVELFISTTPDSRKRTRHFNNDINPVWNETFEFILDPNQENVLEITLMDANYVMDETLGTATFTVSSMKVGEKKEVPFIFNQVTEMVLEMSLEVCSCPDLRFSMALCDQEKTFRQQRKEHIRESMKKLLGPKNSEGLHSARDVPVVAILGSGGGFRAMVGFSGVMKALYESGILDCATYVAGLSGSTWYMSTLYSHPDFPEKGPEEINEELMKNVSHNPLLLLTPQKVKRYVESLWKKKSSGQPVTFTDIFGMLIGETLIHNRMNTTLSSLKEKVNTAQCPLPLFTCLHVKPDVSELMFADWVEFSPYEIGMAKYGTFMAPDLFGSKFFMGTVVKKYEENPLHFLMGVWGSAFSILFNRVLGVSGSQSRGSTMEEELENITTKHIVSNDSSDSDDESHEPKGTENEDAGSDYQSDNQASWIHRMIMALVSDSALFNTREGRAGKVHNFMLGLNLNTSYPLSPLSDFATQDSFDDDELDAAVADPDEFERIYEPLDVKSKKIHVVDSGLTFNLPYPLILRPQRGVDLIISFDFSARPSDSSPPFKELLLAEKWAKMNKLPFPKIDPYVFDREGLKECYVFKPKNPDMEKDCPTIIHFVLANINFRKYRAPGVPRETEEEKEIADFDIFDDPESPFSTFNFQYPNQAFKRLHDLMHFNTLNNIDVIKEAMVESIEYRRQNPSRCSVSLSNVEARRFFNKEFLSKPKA
Test: Coumarin Assay (cPLA2 inhibition)
Assay type: biochemical
Details: for inhibition at 11 µM: CONCENTRATION 11 micromolar; for inhibition at 20 µM: CONCENTRATION 20 micromolar; for inhibition at 4.4 µM: CONCENTRATION 4.4 micromolar
Description: Table I reports data for the compounds described in the examples above in cPLA2 inhibition assays (described below). In the data columns of Tables I and II, assay results are reported as a percent inhibition at the concentration specified.
7-hydroxycoumarinyl 6-heptenoate was used as a monomeric substrate for cPLA2 as reported previously (Huang, Z. et al., 1994, Nalytical Biochemistry 222, 110-115). Inhibitors were mixed with 200 μL assay buffer (80 mM Heped, pH 7.5, 1 mM EDTA) containing 60 μM 7-hydroxycoumarinyl 6-heptenoate. The reaction was initiated by adding 4 μg cPLA2 in 50 μL assay buffer. Hydrolysis of the 7-hydroxycounarimyl 6-heptenoate ester was monitored in a fluorometer by exciting at 360 nm and monitoring emission at 460 nm. Enzyme activity is proportional to the increase in emission at 460 nm per minute. In the presence of a cPLA2 inhibitor, the rate of increase is less. The percent inhibition for corresponding concentrations of compounds herein in this Coumarin assay are provided below in Table I.

[1] = CONCENTRATION 100 micromolar, read-out: PERCENT INHIBITION @

inhibition at 25 µM (CONCENTRATION 25 micromolar, read-out: PERCENT INHIBITION @): 50%
inhibition at 32 µM (CONCENTRATION 32 micromolar, read-out: PERCENT INHIBITION @): 50%
Molecule: CCCn1cc(Cc2ccc(C(=O)NS(=O)(=O)c3ccccc3C)cc2OC)c2cc(NC(=O)OC3CCCC3)ccc21 [Example 20, Cyclopentyl N-{3-[2-methoxy-4-({[(2-methylphenyl)sulfonyl]amino}carbonyl)benzyl]-1-propyl-1H-indol-5-yl}carbamate]

inhibition at 20 µM (read-out: PERCENT INHIBITION @): 50%
Molecule: COc1cc(C(=O)NS(=O)(=O)c2ccccc2C)ccc1Cc1cn(CC2CC2)c2ccc(NC(=O)OC3CCCC3)cc12 [Example 21, Cyclopentyl N-{1-(cyclopropylmethyl)-3-[2-methoxy-4-({[(2-methylphenyl)sulfonyl]amino}carbonyl)benzyl]-1H-indol-5-yl}carbamate]

inhibition at 38 µM (CONCENTRATION 38 micromolar, read-out: PERCENT INHIBITION @): 50%
inhibition at 40 µM (CONCENTRATION 40 micromolar, read-out: PERCENT INHIBITION @): 50%
Molecule: COc1cc(C(=O)NS(=O)(=O)c2ccccc2C)ccc1Cc1cn(Cc2ccncc2)c2ccc(NC(=O)OC3CCCC3)cc12 [Example 22, Cyclopentyl N-[3-[2-methoxy-4-({[(2-methylphenyl)sulfonyl]amino}carbonyl)benzyl]-1-(4-pyridinylmethyl)-1H-indol-5-yl]carbamate]

inhibition at 10 µM (CONCENTRATION 10 micromolar, read-out: PERCENT INHIBITION @): 50%
inhibition at 20 µM (read-out: PERCENT INHIBITION @): 58%
Molecule: COc1cc(C(=O)NS(=O)(=O)c2ccccc2C)ccc1Cc1cn(Cc2ccc3ccccc3c2)c2ccc(NC(=O)OC3CCCC3)cc12 [Example 23, Cyclopentyl N-[3-[2-methoxy-4-({[(2-methylphenyl)sulfonyl]amino}carbonyl)benzyl]-1-(2-naphthylmethyl)-1H-indol-5-yl]carbamate]

inhibition at 13 µM (CONCENTRATION 13 micromolar, read-out: PERCENT INHIBITION @): 50%
inhibition at 17 µM (CONCENTRATION 17 micromolar, read-out: PERCENT INHIBITION @): 50%
Molecule: COc1cc(C(=O)NS(=O)(=O)c2ccccc2C)ccc1Cc1cn(C2CCCC2)c2ccc(NC(=O)OC3CCCC3)cc12 [Example 25, Cyclopentyl N-{1-cyclopentyl-3-[2-methoxy-4-({[(2-methylphenyl)sulfonyl]amino}carbonyl)benzyl]-1H-indol-5-yl}carbamate]

inhibition at 2.5 µM (CONCENTRATION 2.5 micromolar, read-out: PERCENT INHIBITION @): 50%
inhibition at 3.4 µM (CONCENTRATION 3.4 micromolar, read-out: PERCENT INHIBITION @): 50%
inhibition at 6 µM (CONCENTRATION 6 micromolar, read-out: PERCENT INHIBITION @): 87%
Molecule: COc1cc(C(=O)NS(=O)(=O)c2nn(C)c(=NC(C)=O)s2)ccc1Cc1cn(C(c2ccccc2)c2ccccc2)c2ccc(NC(=O)OC3CCCC3)cc12 [Example 29, cyclopentyl N-(3-{4-[({[5-(acetylimino)-4-methyl-4,5-dihydro1,3,4-thiadiazol-2-yl]sulfonyl}amino)carbonyl]-2-methoxybenzyl}-1-benzhydryl-1H-indol-5-yl)carbamate]

inhibition at 11 µM (read-out: PERCENT INHIBITION @): 50%
inhibition at 18 µM (CONCENTRATION 18 micromolar, read-out: PERCENT INHIBITION @): 50%
Molecule: COc1cc(C(=O)NS(=O)(=O)Cc2ccccc2)ccc1Cc1cn(C(c2ccccc2)c2ccccc2)c2ccc(NC(=O)OC3CCCC3)cc12 [Example 31, cyclopentyl N-[1-benzhydryl-3-(4-{[(benzylsulfonyl)amino]carbonyl}-2-methoxybenzyl)-1H-indol-5-yl]carbamate]

inhibition at 4 µM (CONCENTRATION 4 micromolar, read-out: PERCENT INHIBITION @): 50%
inhibition at 4.4 µM (read-out: PERCENT INHIBITION @): 50%
Molecule: COc1cc(C(=O)NS(=O)(=O)c2sc(C)nc2C)ccc1Cc1cn(C(c2ccccc2)c2ccccc2)c2ccc(NC(=O)OC3CCCC3)cc12 [Example 32, cyclopentyl N-{1-benzhydryl-3-[4-({[(2,4-dimethyl-1,3-thiazol-5-yl)sulfonyl]amino}carbonyl)-2-methoxybenzyl]-1H-indol-5-yl}carbamate]

inhibition at 4.4 µM (read-out: PERCENT INHIBITION @): 50%
inhibition at 4.9 µM (CONCENTRATION 4.9 micromolar, read-out: PERCENT INHIBITION @): 50%
Molecule: COc1cc(C(=O)NS(=O)(=O)c2c(C)noc2C)ccc1Cc1cn(C(c2ccccc2)c2ccccc2)c2ccc(NC(=O)OC3CCCC3)cc12 [Example 33, cyclopentyl N-{1-benzhydryl-3-[4-({[(3,5-dimethyl-4-isoxazolyl)sulfonyl]amino}carbonyl)-2-methoxybenzyl]-1H-indol-5-yl}carbamate]

More lines, now with the values behind:

Molecule: 3-{4-[2-(1-benzhydryl-5-chloro-2-{[(2,6-difluorobenzyl)oxy]methyl}-1H-indol-3-yl)ethoxy]phenyl}propanoic acid [Example 166]
% Inhibition (Conc 0.31 uM): 58%

Molecule: CCCn1cc(Cc2ccc(C(=O)O)cc2OC)c2cc(NC(=O)OC3CCCC3)ccc21 [Example 1, 4-[(5-{[(cyclopentyloxy)carbonyl]amino}-1-propyl-1H-indol-3-yl)methyl]-3-methoxybenzoic acid]
inhibition at 50 µM (CONCENTRATION 50 micromolar, read-out: PERCENT INHIBITION @): 7%
inhibition at 100 µM [1]: 18%
inhibition at 170 µM (CONCENTRATION 170 micromolar, read-out: PERCENT INHIBITION @): 50%

Molecule: COc1cc(C(=O)O)ccc1Cc1cn(Cc2ccc3ccccc3c2)c2ccc(NC(=O)OC3CCCC3)cc12 [Example 4, 4-{[5-{[(cyclopentyloxy)carbonyl]amino}-1-(2-naphthylmethyl)-1H-indol-3-yl]methyl}3-methoxybenzoic acid]
inhibition at 5 µM (CONCENTRATION 5 micromolar, read-out: PERCENT INHIBITION @): 50%
inhibition at 11 µM (read-out: PERCENT INHIBITION @): 50%

Molecule: COc1cc(C(=O)O)ccc1Cc1cn(CC2CC2)c2ccc(NC(=O)OC3CCCC3)cc12 [Example 5, 4-{[5-{[(cyclopentyloxy)carbonyl]aminol}-1-(cyclopropylmethyl)-1H-indol-3-yl]methyl}-3-methoxybenzoic acid]
PERCENT INHIBITION @ (CONCENTRATION 100 micromolar): 41%
PERCENT INHIBITION @ (CONCENTRATION 120 micromolar): 50%

Molecule: COc1cc(C(=O)O)ccc1Cc1cn(Cc2ccncc2)c2ccc(NC(=O)OC3CCCC3)cc12 [Example 6, 4-{[5-{[(cyclopentyloxy)carbonyl]amino}-1-(4-pyridinylmethyl)-1H-indol-3-yl]methyl}-3-methoxybenzoic acid]
inhibition at 100 µM [1]: 11%
inhibition at 200 µM (CONCENTRATION 200 micromolar, read-out: PERCENT INHIBITION @): 50%

Molecule: COc1cc(C(=O)O)ccc1Cc1cn(C(c2ccccc2)c2ccccc2)c2ccc(S(C)(=O)=O)cc12 [Example 18, 4-{[l-benzhydryl-5-(methylsulfonyl)-1H-indol-3-yl]methyl}-3-methoxybenzoic acid]
PERCENT INHIBITION @ (CONCENTRATION 1.2 micromolar): 50%
PERCENT INHIBITION @ (CONCENTRATION 1.3 micromolar): 50%
PERCENT INHIBITION @ (CONCENTRATION 1.9 micromolar): 50%
PERCENT INHIBITION @ (CONCENTRATION 2 micromolar): 50%

Molecule: COc1cc(C(=O)NS(=O)(=O)c2ccccc2C)ccc1Cc1cn(C(c2ccccc2)c2ccccc2)c2ccc(NC(=O)OC3CCCC3)cc12 [Example 19, Cyclopentyl N-{1-benzhydryl-3-[2-methoxy-4-({[(2-methylphenyl)sulfonyl]amino}carbonyl)benzyl]-1H-indol-5-yl}carbamate]
inhibition at 2.2 µM (CONCENTRATION 2.2 micromolar, read-out: PERCENT INHIBITION @): 50%
inhibition at 4.2 µM (CONCENTRATION 4.2 micromolar, read-out: PERCENT INHIBITION @): 50%
inhibition at 5.8 µM (CONCENTRATION 5.8 micromolar, read-out: PERCENT INHIBITION @): 50%
inhibition at 6.25 µM (CONCENTRATION 6.25 micromolar, read-out: PERCENT INHIBITION @): 52%
inhibition at 7.8 µM (CONCENTRATION 7.8 micromolar, read-out: PERCENT INHIBITION @): 50%
inhibition at 9 µM (CONCENTRATION 9 micromolar, read-out: PERCENT INHIBITION @): 50%
inhibition at 11 µM (read-out: PERCENT INHIBITION @): 50%
inhibition at 12 µM (CONCENTRATION 12 micromolar, read-out: PERCENT INHIBITION @): 50%
